This note sets out measurements from patent publication EP0802730B1, “PESTICIDAL COMPOUNDS” (BTG INTERNATIONAL LIMITED, priority 1995, dated 1996).

Data set [1] deals with Pyricularia oryzae (=Magnaporthe grisea). Format: cell-based. The settings on record: P. oryzae; 100 mg 1^-1; 7 days.
For data set [2], the system named is Whitefly (BT) (Bemisia tabaci), susceptible strain (SUD-S). The data set can be described thus: Whitefly residual film vial test, susceptible strain SUD-S. In kind it is in vivo. The settings on record: 48 h, Tables 10, 13, 14, susceptible strain, NA = lack of detectable activity, read-out: BT LC50 (ppm/insect). In short, it runs like this:
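Thirty adult whiteflies were held for 60 min in glass vials coated with a dry compound film cast from acetone, then moved to untreated cotton leaf discs on agar at 25°C. Mortality was scored after 48 h, with three replicates at each of 5 to 7 dose levels.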

Data set [3] concerns Houseflies (MD) (Musca domestica). Format: in vivo. The settings on record: Tables 10, 13, 14; NA = lack of detectable activity. In short, it runs like this:
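Female flies dosed topically on the thorax with 1 µl of compound in acetone; 6 dose rates, 2 replicates of 15 flies each. Held at 20° ± 1°C, with kill scored at 24 and 48 h. LD50 expressed as µg compound per fly.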

The subject of a further data set is Aspergillus niger. Briefly: Fungitoxicity in vitro on potato dextrose agar. Format: cell-based. The settings on record: A. niger; 100 mg 1^-1; 4 days.
The subject of data set [4] is Mites (TU) (Tetranychus urticae), susceptible strain (GSS). Briefly: Mite immersion test, susceptible strain GSS. In kind it is in vivo. The settings on record: 72 h, Tables 10, 13, 14, susceptible strain, NA = lack of detectable activity, read-out: TU LC50 (ppm/insect). In a few lines:
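Groups of 25 adult female GSS-strain mites dipped 30 s in compound solution in 1:4 acetone–water, held at 21 ± 2 °C, and mortality scored at 72 h. Triplicates at 5–6 dose rates gave LC50 in ppm.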

For the next data set, the system named is Rhizoctonia solani. The data set can be described thus: Fungitoxicity in vitro on potato dextrose agar. Format: cell-based. The settings on record: R. solani; 100 mg 1^-1; 4 days.
Data set [5] concerns Myzus persicae, susceptible strain (US1L). The data set can be described thus: Aphid dip test, susceptible strain. Format: in vivo. As to the method:
Activity against resistant (R) and susceptible (S) strains of aphid (Myzus persicae) was assessed using the following method.
Entrapment rings of fluon were painted halfway up the inside of 4 cm lengths of glass tubing (1.5 cm diameter), and squares of insect-proof gauze were attached to one end of each tube by elastic bands. Fifteen apterous adults were then gently transferred into the tubes using a sable-hair brush, and the tube sealed with a second gauze square.
Tubes containing aphids were dipped into insecticide solutions for 10 seconds, dried on blotting paper, and then inverted and tapped to cause treated aphids to fall to the unimmersed end of each tube. Handling mortality (usually zero or very slight) was scored after 1 hour, when aphids were transferred onto chinese cabbage leaf-discs (35 mm diameter) on an agar bed (25 mm in depth) in disposible plastic containers (30 mm high) and confined by applying a ring of fluon to the exposed lip of the container. Containers were store upright, without lids, in a constant environment facility maintained at 25°C under continuous room lighting. Mortality was assessed at 24, 48 and 72 hours. Two replicates of 15 aphids each were used at each dose rate and 5 or 6 dose rates were used per compound under test.
The test was carried out using a susceptible strain of aphids (US1L) collected in the field in East Anglia, UK and an extremely resistant strain of aphids (794Jz) (R3 esterase, sensitive AChE) collected from glasshouses in the UK.
The values given are % mortality corrected for control data. The control comprised the test solution without active ingredient.

Data set [6] can be described thus: Mammalian toxicity, whole body LD50. The settings on record: rat, in vivo; rats. From the text:
In addition to the specific insecticidal and acaricidal tests described above, compounds of the present invention were submitted for further tests relating to toxicity to mammals and so-called friendly species such as Chrysloperla carnea, Aleochora bilineata and Coccinella septempunctata.

Data set [7] relates to Mustard beetles (PC) (Phaedon cochleariae Fab). In kind it is in vivo. The settings on record: Tables 10, 13, 14; NA = lack of detectable activity. As to the method: A one microlitre drop of an acetone solution of the test compound was applied ventrally to adult mustard beetles using a micro drop applicator. The treated insects were maintained for 48 hours after which time kill was assessed. Two replicates each of 20 to 25 mustard beetles were used at each dose level and 5 dose levels were treated comparably. LD50 values were calculated as for houseflies.

Each structure is given as a SMILES string. ≈ marks a conversion by molar mass, not a printed value. Read-outs that look alike come from different tables or passages of the source.

For orientation: LD50 means the dose expected to kill half of the subjects tested. A low value points to a more toxic substance. Turning to `CC1(C2=C(O)C(=O)c3ccccc3C2=O)CCCCC1` [Example 25, 2-hydroxy-3-(1'-methylcyclohexyl)-naphthalene-1,4-dione], the “% inhibition of growth in colony diameter in agar plates, Activity at 100 mg 1^-1” value in data set [1] stood at 94%; in the data set on Aspergillus niger it was 45%; in the data set with Rhizoctonia solani, 93%. In addition, the values for the LC50 in [2] and in [4] were 0.1 µg/mL (≈ 0.37 µM) and 28 µg/mL (≈ 104 µM), respectively. The “MD LD50 (µg/insect)” value in data set [3] stood at 1.9 µg/insect. Besides, the mortality at 100 ppm amounted to 22% in data set [5] (read-out: MP % kill 100 ppm) and 23% in [5] (strain S, 100 PPM, read-out: % mortality corrected for control data). For the same molecule, the mortality at 250 ppm in data set [5] (strain S, 250 PPM, read-out: % mortality corrected for control data) was 67%. In addition, the LD50 in data set [6] worked out at 2790 mg/kg. For the same molecule, the “PC LD50 (µg/insect)” value in data set [7] is listed as 5 µg/insect.
